Laboratory results from patent US20100249123A1, “NOVEL BENZAMIDE DERIVATIVES AS MODULATORS OF THE FOLLICLE STIMULATING HORMONE” (ADDEX PHARMA SA, priority 2007, published 2010).

Target: T1, rat follicle stimulating hormone receptor (rFSHR) (Rattus norvegicus, UniProt P20395)
T1 construct: expressed in transfected cells
T1 sequence (P20395 18-692): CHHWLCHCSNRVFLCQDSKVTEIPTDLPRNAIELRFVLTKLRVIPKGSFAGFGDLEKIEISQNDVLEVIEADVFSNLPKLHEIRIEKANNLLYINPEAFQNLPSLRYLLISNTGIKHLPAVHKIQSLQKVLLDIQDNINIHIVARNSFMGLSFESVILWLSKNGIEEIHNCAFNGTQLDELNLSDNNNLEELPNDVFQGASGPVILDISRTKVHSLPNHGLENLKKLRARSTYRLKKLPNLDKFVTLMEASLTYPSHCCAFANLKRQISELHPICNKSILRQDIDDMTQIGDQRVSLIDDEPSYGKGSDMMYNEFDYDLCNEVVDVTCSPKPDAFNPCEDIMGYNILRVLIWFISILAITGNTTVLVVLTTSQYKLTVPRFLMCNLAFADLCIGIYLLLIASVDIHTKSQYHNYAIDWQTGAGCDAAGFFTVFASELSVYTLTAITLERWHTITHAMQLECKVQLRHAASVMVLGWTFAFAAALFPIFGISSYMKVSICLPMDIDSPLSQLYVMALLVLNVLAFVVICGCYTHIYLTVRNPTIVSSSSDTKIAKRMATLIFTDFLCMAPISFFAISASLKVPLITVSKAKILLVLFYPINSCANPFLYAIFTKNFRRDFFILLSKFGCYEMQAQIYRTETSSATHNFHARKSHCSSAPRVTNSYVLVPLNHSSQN
Experiment: Intracellular cAMP measurement (HTRF) assay, antagonism of EC70 of hFSH
Assay type: cell-based
Settings: HEK293 cells expressing rFSHR, 1 ng/ml hFSH (EC70), read-out: Class (IC50 to antagonise an EC70 of FSH receptors agonist such as hFSH)
From the text: Intracellular cAMP Measurement Assay
The Intracellular cAMP measurement assay is a functional cell-based assay used to study GPCR function. This method relies on a Time-Resolved Fluorescence (HTRF) assay to measure the cAMP accumulation upon receptor-mediated Gs protein activation in cells expressing recombinant GPCR or in cells from native tissues. In brief, this method is a competitive immunoassay between native cAMP produced by cells and the cAMP labeled with a fluorescent tag. The endogenously produced cAMP competes with exogenous added d2-labelled cAMP for the cAMP binding site on a Eu3+ cryptate labelled anti-cAMP antibody. The d2-labelled cAMP and the Eu^3+ labelled antibody produces a basal fluroresence via HTRF and therefore an intracellular increase in unlabelled cAMP is detected as decrease in this signal. cAMP is one of the most important intracellular mediators. Its concentration in cells can be increased upon binding of many hormones to their receptors. The most studied pathway consists in the release of α-subunit GTP-binding proteins following ligand-receptor interaction, which in turn activates or inhibits the ATP/cAMP conversion function of adenylate cyclase enzyme. cAMP is then involved in many complex regulatory processes such as protein kinase activation or ion channel gating. This method is widely used to study receptor activation of G protein in cells over-expressing GPCRs or in native cells, including FSH receptors expressing cells (Gabriel et al., Assay Drug Dev. Technol., 1, 291-303, 2003).
Transfection and cell culture: The cDNA encoding the rat follicle stimulating hormone receptor (rFSHR), (accession number NM_199237, NCBI Nucleotide database browser) was subcloned into an expression vector containing also the hygromycin resistance gene. Transfection of this vector into HEK293 cells with PolyFect reagent (Qiagen) according to supplier's protocol, and hygromycin treatment allowed selection of antibiotic resistant cells which had integrated stably one or more copies of the plasmid. Positive cellular clones expressing rFSHR were identified in a functional assay measuring cAMP production in cells following stimulation by addition of purified human follicle stimulating hormone (hFSH).
HTRF cAMP assay: On the day of the experiment, cells were detached from the Petri dish and distributed in a low volume, black-walled 384-well plate at a density of 5,000 cells/well in an assay buffer containing 1 mM IBMX to prevent cAMP degradation by cytoplasmic phosphodiesterases. The determination of the cAMP accumulation was performed using an HTRF assay (Trinquet et al., Anal. Biochem., 358, 126-135, 2006). Briefly, cells were incubated for 3 min in the presence of increasing concentrations of negative allosteric modulators (from 1 nM to 60 μM) and then 30 min in the presence of 1 ng/ml of hFSH, an agonist of rat FSH receptor, that has been determined in previous experiments to correspond to the EC70, a concentration that gives 70% of the maximal response of the agonist, and is in accordance with published data (Fox et al., Mol. Endocrin., 15, 378-389, 2001). […] Cells were then lysed by adding the HTRF assay components, the europium cryptate-labeled anti-cAMP antibody, and the XL665-labeled cAMP analog, previously diluted in a HEPES buffer (50 mM, pH 7.0) containing 0.8 M potassium fluoride, 0.2% (w/v) BSA, and 1% (v/v) Triton X-100, a percentage of detergent that ensure complete cell lysis. Assay was then incubated for 1 hr at room temperature, and HTRF signal was measured after excitation at 337 nm, and dual emission at 620 and 665 nm, using a RubyStar fluorimeter (BMG Labtechnologies). Moreover, the fluorescence ratio of an appropriate range of known concentrations of cAMP standards was also included on each assay plate to produce a standard cAMP curve. […]
`COc1ccc(C(=O)Nc2ccc(C(C)(C)CNC(=O)c3cc(C)[nH]n3)cc2)cc1OC` [Example 127] gave an IC50 of 400 to 1000 nM. `COc1ccc(C(=O)Nc2ccc(C(C)(C)CCNC(=O)c3nc4cccnc4[nH]3)cc2)cc1OC` [Example 196, 3H-Imidazo[4,5-b]pyridine-2-carboxylic acid {3-[4-(3,4-dimethoxy-benzoylamino)-phenyl]-3-methyl-butyl}-amide] gave an IC50 of 150 to 400 nM. In the case of `COc1ccc(C(=O)Nc2ccc(C(C)(C)CNC(=O)c3nn(C)c4ccccc34)c(C)c2)cc1OC` [Example 110, 1-Methyl-1H-indazole-3-carboxylic acid{2-[4-(3,4-dimethoxy-benzoylamino)-2-methyl-phenyl]-2-methyl-propyl}-amide], the IC50 is reported as 150 to 400 nM. Molecule `COc1ccc(C(=O)Nc2ccc(C(C)(C)CNC(=O)c3ccc4c(c3)n(C)c(=O)n4C)cc2)cc1OC` [Example 210] has an IC50 of 400 to 1000 nM. `COc1ccc(C(=O)Nc2ccc(C(C)(C)C#N)c(C(F)(F)F)c2)cc1OC` [Example 99, N-[4-(Cyano-dimethyl-methyl)-3-trifluoromethyl-phenyl]-3,4-dimethoxy-benzamide] showed an IC50 of 150 to 400 nM. `COc1ccc(C(=O)Nc2ccc(C(C)(C)CNC(=O)c3ccc4[nH]ccc4c3)cc2)cc1OC` [Example 142] showed an IC50 of 150 to 400 nM. In the case of `COc1ccc(C(=O)Nc2ccc(C(C)(C)CNC(=O)c3ccco3)cc2)cc1OC` [Example 32], the IC50 is reported as 150 to 400 nM. In the case of `COc1ccc(C(=O)Nc2ccc(C(C)(C)CNC(=O)c3cnc4[nH]ccc4c3)cc2)cc1OC` [Example 202], the IC50 is reported as < 150 nM. Work on `COc1ccc(C(=O)Nc2ccc(C(C)(C)CNC(=O)c3c[nH]c4ncc(F)cc34)cc2)cc1OC` [Example 216] yielded an IC50 of 150 to 400 nM. `COc1ccc(C(=O)Nc2ccc(C(C)(C)C#N)c(C)c2)cc1OC` [Example 95, N-[4-(Cyano-dimethyl-methyl)-3-methyl-phenyl]-3,4-dimethoxy-benzamide] gave an IC50 of 150 to 400 nM. `COc1ccc(C(=O)Nc2cc(Cl)c(C(C)(C)C#N)c(Cl)c2)cc1OC` [Example 120, N-[3,5-Dichloro-4-(cyano-dimethyl-methyl)-phenyl]-3,4-dimethoxy-benzamide] showed an IC50 of 150 to 400 nM. For `COc1ccc(C(=O)Nc2ccc(C(C)(C)C#N)c(N3CCOCC3)c2)cc1OC` [Example 204, N-[4-(Cyano-dimethyl-methyl)-3-morpholin-4-yl-phenyl]-3,4-dimethoxy-benzamide], the IC50 was ≥ 1000 nM. `COc1ccc(C(=O)Nc2ccc(C(C)(C)CNC(=O)c3c[nH]c4cnccc34)cc2)cc1OC` [Example 215] showed an IC50 of 400 to 1000 nM. With `COc1ccc(C(=O)Nc2ccc(C(C)(C)CNC(=O)c3ccc4[nH]c(C)nc4c3)cc2)cc1OC` [Example 208] the IC50 was 400 to 1000 nM. In the case of `CCc1cc(NC(=O)c2ccc(OC)c(OC)c2)ccc1C(C)(C)C#N` [Example 133, N-[4-(Cyano-dimethyl-methyl)-3-ethyl-phenyl]-3,4-dimethoxy-benzamide], the IC50 is reported as < 150 nM. With `COc1ccc(C(=O)Nc2ccc(C(C)(C)CNC(=O)c3cnc4ncccn34)cc2)cc1OC` [Example 185] the IC50 was 400 to 1000 nM.

Test system: not given
Experiment: not given
Settings: not given
With `COc1ccc(C(=O)Nc2ccc(C(C)(C)c3noc(COc4ccccc4)n3)cc2)cc1OC` [Example 53, 3,4-Dimethoxy-N-{4-[1-methyl-1-(5-phenoxymethyl-[1,2,4]oxadiazol-3-yl)-ethyl]-phenyl}-benzamide] the melting point was 165 to 167 °C. `COc1cc(C(C)(C)C#N)ccc1NC(=O)c1ccc(OC)c(OC)c1` [Example 75, N-[4-(Cyano-dimethyl-methyl)-2-methoxy-phenyl]-3,4-dimethoxy-benzamide] showed a melting point of 110 to 112 °C. For `COc1ccc(C(=O)Nc2ccc(C(C)(C)C#N)cc2)cc1OC` [Example 1, N-[4-(Cyano-dimethyl-methyl)-phenyl]-3,4-dimethoxy-benzamide], the melting point was 139 to 141 °C. Molecule `COc1ccc(C(=O)Nc2ccc(C3(CNC(=O)c4cscn4)CCCC3)cc2)cc1OC` [Example 29, Thiazole-4-carboxylic acid {1-[4-(3,4-dimethoxy-benzoylamino)-phenyl]-cyclopentylmethyl}-amide] has a melting point of 101 to 104 °C. `COc1ccc(C(=O)Nc2ccc(C(C)(C)C#N)c(-c3ccncc3)c2)cc1OC` [Example 158, N-[4-(Cyano-dimethyl-methyl)-3-pyridin-4-yl-phenyl]-3,4-dimethoxy-benzamide] showed a melting point of 196 to 199 °C. `COc1ccc(C(=O)Nc2ccc(C(C)(C)CN3CCOC3=O)cc2)cc1OC` [Example 60, N-{4-[1,1-Dimethyl-2-(2-oxo-oxazolidin-3-yl)-ethyl]-phenyl}-3,4-dimethoxy-benzamide] showed a melting point of 190 to 191 °C. Molecule `COc1ccc(C(=O)Nc2ccc(C3(CNC(C)=O)CC3)cc2)cc1OC` [Example 54, N-{4-[1-(Acetylamino-methyl)-cyclopropyl]-phenyl}-3,4-dimethoxy-benzamide] has a melting point of 204 to 206 °C. Molecule `COc1ccc(C(=O)Nc2ccc(C(C)(C)C#N)cc2)c(Cl)c1OC` [Example 153, 2-Chloro-N-[4-(cyano-dimethyl-methyl)-phenyl]-3,4-dimethoxy-benzamide] has a melting point of 195 to 198 °C. `COC(=O)NCC(C)(C)c1ccc(NC(=O)c2ccc(OC)c(OC)c2)cc1` [Example 52, {2-[4-(3,4-Dimethoxy-benzoylamino)-phenyl]-2-methyl-propyl}-carbamic acid methyl ester] gave a melting point of 67 to 69 °C. Molecule `COc1ccc(C(=O)Nc2cccc(C3(C#N)CCCC3)c2)cc1OC` [Example 14, N-[3-(1-Cyano-cyclopentyl)-phenyl]-3,4-dimethoxy-benzamide] has a melting point of 59 to 61 °C. Work on `COc1ccc(C(=O)Nc2ccc(C(C)(C)C(N)=O)cc2)cc1OC` [Example 21, N-[4-(1-Carbamoyl-1-methyl-ethyl)-phenyl]-3,4-dimethoxy-benzamide] yielded a melting point of 193 to 195 °C. With `COc1cc(Cl)c(C(=O)Nc2ccc(C(C)(C)C#N)cc2)cc1OC` [Example 155, 2-Chloro-N-[4-(cyano-dimethyl-methyl)-phenyl]-4,5-dimethoxy-benzamide] the melting point was 142 to 144 °C. In the case of `COc1ccc(C(=O)Nc2ccc(C(C)(C)CNC(=O)c3cnc4ccccn34)cc2)cc1OC` [Example 161, Imidazo[1,2-a]pyridine-3-carboxylic acid {2-[4-(3,4-dimethoxy-benzoylamino)-phenyl]-2-methyl-propyl}-amide], the melting point is reported as 181 to 183 °C. Molecule `COc1ccc(C(=O)Nc2ccc(C3(C#N)CC3)cc2)cc1OC` [Example 2, N-[4-(1-Cyano-cyclopropyl)-phenyl]-3,4-dimethoxy-benzamide] has a melting point of 204 to 207 °C.
